Values quoted from earlier work in paper PMC3865603 (Cancer chemotherapy and pharmacology, 2011).

Legend:
tubulin in PBMCs = conditions: ixabepilone RP2D 40 mg/m^2, 1 h after infusion, n = 27; cited from earlier work
patients = conditions: cited from earlier work
[1] = cited from earlier work

Row | Compound | mean MBF (tubulin in PBMCs) | DLTs (patients) | in vivo activity relative to other epothilones [1] | neurotoxicity in phase II trials (patients)
1 | C/C(=C\c1csc(C)n1)[C@@H]1C[C@@H]2O[C@]2(C)CCC[C@H](C)[C@H](O)[C@@H](C)C(=O)C(C)(C)[C@@H](O)CC(=O)N1 [Ixabepilone, ixabepilone] | 63% | neutropenia, neuropathy, and abdominal pain/nausea | – | –
2 | C/C1=C/C[C@@H](/C(C)=C/c2csc(C)n2)OC(=O)C[C@H](O)C(C)(C)C(=O)[C@H](C)[C@@H](O)[C@@H](C)CCC1 [KOS-862, Desoxyepothilone B] | – | – | greater activity compared with ixabepilone and patupilone | significant neurotoxicity
3 | C/C(=C\c1csc(C)n1)[C@@H]1C[C@@H]2O[C@]2(C)CCC[C@H](C)[C@H](O)[C@@H](C)C(=O)C(C)(C)[C@@H](O)CC(=O)O1 [patupilone] | – | diarrhea, peripheral neuropathy, and fatigue | – | –
4 | C=CC[C@H]1C(=O)C(C)(C)[C@@H](O)CC(=O)O[C@H](c2ccc3sc(C)nc3c2)C[C@@H]2O[C@]2(C)CCC[C@H](C)[C@@H]1O [sagopilone] | – | peripheral neuropathy, infection, hyponatremia, diarrhea, and central ataxia | – | –
